Experimental data as given in patent publication US11214803B2, “Modulators of YAP1 expression” (Ionis Pharmaceuticals, Inc., priority 2019, dated 2022).
pIC50: −log10 of the molar value. Marks after values point to notes of the source that are not given here. Strand notation (5' to 3'): a small letter for the sugar, then the base; units joined by * are phosphorothioate-linked, units joined directly phosphodiester-linked; [ ] holds rarer units or linkages, { } end groups; capitals alone tell only the bases. e = 2'-O-(2-methoxyethyl) (MOE); k = constrained ethyl (cEt); [5mC] = 5-methylcytosine; d = 2'-deoxy (DNA); m = 2'-O-methyl

Tests used:
[1] = Tolerability in CD-1 mice, plasma chemistry markers (Example 17); type: in vivo; conditions: male CD-1 mice, 50 mg/kg s.c. twice a week for four weeks (8 treatments), day 27
Description: (§1) CD-1 mice were treated with modified oligonucleotides selected from studies described above and evaluated for changes in the levels of various plasma chemistry markers.
(§2) Groups of four male CD-1 mice at 4-5 weeks of age (obtained from Charles River) were injected subcutaneously twice a week for four weeks (for a total of 8 treatments) with 50 mg/kg of modified oligonucleotides. One group of male CD-1 mice was injected with PBS. Mice were euthanized on day 27 post start of treatment (24 hrs following the final administration).

[2] = Tolerability in CD-1 mice, body and organ weights (Example 17); type: in vivo; conditions: male CD-1 mice, 50 mg/kg s.c. twice a week for four weeks (8 treatments), end of study (day 27)
Description: as §2
(§3) Body weights of CD-1 mice were measured at the end of the study, and the average body weight for each group is presented in the table below. Modified oligonucleotides that caused any changes in organ weights outside the expected range for modified oligonucleotides were excluded from further studies.

[3] = Tolerability in Sprague-Dawley rats, kidney function, urine total protein to creatinine ratio (Example 21); conditions: male Sprague-Dawley rats, 50 mg/kg s.c. weekly for 6 weeks (7 doses)
Description: Male Sprague-Dawley rats were maintained on a 12-hour light/dark cycle and fed ad libitum with Purina normal rat chow. Groups of 4 Sprague-Dawley rats each were weekly injected subcutaneously with 50 mg/kg of Ionis oligonucleotide for 6 weeks (total 7 doses). Forty-eight hours after the last dose, the rats were euthanized; and organs, urine and plasma were harvested for further analysis.
To evaluate the effect of Ionis oligonucleotides on kidney function, urinary levels of total protein and creatinine were measured using an automated clinical chemistry analyzer (Hitachi Olympus AU400c, Melville, N.Y.).

[4] = Tolerability in Sprague-Dawley rats, body and organ weights (Example 21); type: in vivo; conditions: male Sprague-Dawley rats, 50 mg/kg s.c. weekly for 6 weeks (7 doses); for Kidney weight / Liver weight / Spleen weight: end of study; for body weight: terminal, prior to necropsy
Description: Terminal body weight was measured prior to necropsy. Ionis oligonucleotides that caused any changes in organ weights outside the expected range for modified oligonucleotides were excluded from further studies.

Yap1 mRNA [5] = test: Dose-dependent inhibition of human Yap1 in SNU-449 cells (Example 9, RTS36584); type: cell-based; conditions: free uptake; for % UTC (Yap1 mRNA): approximately 48 hours; for pIC50: linear regression on a log/linear plot
How it was run: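 Read-out was Yap1 mRNA (primer-probe RTS36584) normalised to total RNA by RIBOGREEN, given as % of untreated cells, with IC50 fitted by linear regression of log/linear data. Oligonucleotides were dosed by free uptake to SNU-449 cells, 10,000/well, for ~48 h.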

[6] = Tolerability in Sprague-Dawley rats, plasma chemistry markers (Example 21); type: in vivo; conditions: male Sprague-Dawley rats, 50 mg/kg s.c. weekly for 6 weeks (7 doses), 48 hours after last dose
Description: Sprague-Dawley rats are a multipurpose model used for safety and efficacy evaluations. The rats were treated with Ionis modified oligonucleotides from the studies described in the Examples above and evaluated for changes in the levels of various plasma chemistry markers.

[7] = Tolerability in CD-1 mice, plasma chemistry markers (Example 16); type: in vivo; conditions: male CD-1 mice, 50 mg/kg s.c. twice a week for four weeks (8 treatments), day 27
Description: as §1, §2

[8] = Tolerability in CD-1 mice, body and organ weights (Example 16); type: in vivo; conditions: male CD-1 mice, 50 mg/kg s.c. twice a week for four weeks (8 treatments), end of study (day 27)
Description: as §2, §3

Yap1 mRNA [9] = test: Dose-dependent inhibition of human Yap1 in A-431 cells (Example 8, 10,000 cells per well, RTS4814); type: cell-based; conditions: free uptake, approximately 48 hours, RTS4814; for Yap1 mRNA, % UTC: A-431 cells, 10,000 cells per well; for pIC50: A-431 cells, linear regression on log/linear plot
How it was run: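 Yap1 mRNA, normalized to RIBOGREEN total RNA and expressed as % untreated control, was read with RTS4814 about 48 h after free-uptake oligonucleotide treatment of A-431 cells at 10,000 cells/well. IC50 derived by linear regression of log/linear data.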

Yap1 mRNA [10] = test: Inhibition of human Yap1 mRNA in SNU449 hepatocellular carcinoma xenograft tumors (Example 26); type: in vivo; conditions: SNU449 xenografts in NSG mice, 50 mg/kg twice weekly for five days, relative to PBS treated animals
Description: A SNU449 hepatocellular carcinoma xenograft tumor model was used to evaluate activity of modified oligonucleotides targeted to human Yap1. Ten million SNU449 cells in 30% matrigel were implanted subcutaneously into the flanks of female NOD Cg-Prkdcscid ll2rgtm1Wjl/SzJ (NSG) mice (from Jackson Laboratory) at 4-6 weeks of age. When tumors reached an average volume of 100 mm^3, approximately two weeks post-implantation, groups of four mice each were administered at 50 mg/kg twice weekly with modified oligonucleotides for five days. Tumors were collected and tested for Yap1 mRNA knockdown by RT-qPCR. Yap1 mRNA levels were measured as previously described using the Human Yap1 primer-probe set RTS4814. Yap1 mRNA levels were normalized to actin-beta content, as measured by primer probe set RTS5002. Results are presented in the tables below as percent control of the amount of Yap1 mRNA relative to PBS treated animals (% control).

Row | Substance | URINE P/C ratio (total protein to creatinine ratio) [3] | Kidney weight [4] | Liver weight [4] | Spleen weight [4] | body weight [4] [g] | % UTC (Yap1 mRNA) (Yap1 mRNA [5]; 31.3 nM) [% UTC] | % UTC (Yap1 mRNA) (Yap1 mRNA [5]; 125.0 nM) [% UTC] | % UTC (Yap1 mRNA) (Yap1 mRNA [5]; 500.0 nM) [% UTC] | % UTC (Yap1 mRNA) (Yap1 mRNA [5]; 2000.00 nM) [% UTC] | pIC50 (Yap1 mRNA [5]) | ALT [6] | AST [6] | BUN [6] | TBIL [6] | also measured
1 | 1097037 (kA*kG*kA*dT*dT*dT*dA*dG*dG*dA*dT*dG*d[5mC]*kA*kT*kG; antisense) [compound 1097037] |  |  |  |  |  |  |  |  |  |  |  |  |  |  | ALT [1]: 73 U/L; AST [1]: 97 U/L; BUN [1]: 23 mg/dL; TBIL [1]: 0.12 mg/dL; Kidney weight [2]: 0.52 g; Liver weight [2]: 2.33 g; Spleen weight [2]: 0.21 g; body weight [2]: 33 g
2 | 1198612 (kA*kA*kG*dT*dG*dT*dA*dT*dG*dT*d[5mC]*dA*kG*kA*kA*eG) [compound 1198612] | 11 | 3.60 g | 17 g | 2.33 g | 345 | 44 | 12 | 2 | 0 | > 7.52 | 74 U/L | 91 U/L | 31 mg/dL | 0.12 mg/dL | 
3 | 1198873 (kA*kG*dT*dG*dT*dA*dT*dG*dT*d[5mC]*dA*kG*eA*kA*eG*kA; antisense) [compound 1198873] | 9 | 3.65 g | 19 g | 2.42 g | 408 | 38 | 12 | 2 | 0 | > 7.52 | 78* U/L | 79* U/L | 24* mg/dL | 0.17* mg/dL | 
4 | 1076186 (kA*kT*kT*dT*dA*dG*dG*dA*dT*dG*d[5mC]*dA*dT*kG*kG*kT) [compound 1076186] |  |  |  |  |  |  |  |  |  |  |  |  |  |  | ALT [7]: 74 U/L; AST [7]: 97 U/L; Albumin [7]: 2.5 g/dL; BUN [7]: 23 mg/dL; TBIL [7]: 0.16 mg/dL; Kidney weight [8]: 0.58 g; Liver weight [8]: 2.42 g; Spleen weight [8]: 0.16 g; body weight [8]: 37 g
5 | 1200857 (kA*kG*kT*dG*dT*mA*dT*dG*dT*d[5mC]*dA*dG*dA*kA*kG*kA; antisense) [compound 1200857] | 52 | 6.97 g | 19 g | 2.55 g | 307 | 66 | 30 | 8 | 2 | 7.00 | 183 U/L | 318 U/L | 56 mg/dL | 4.93 mg/dL | 
6 | 1075395 (antisense kA*kT*kG*dA*dA*dT*dA*dA*dG*dT*dA*dT*dG*k[5mC]*k[5mC]*kA) [compound 1075395] |  |  |  |  |  |  |  |  |  |  |  |  |  |  | ALT [1]: 38 U/L; AST [1]: 51 U/L; BUN [1]: 21 mg/dL; TBIL [1]: 0.18 mg/dL; Yap1 mRNA, % UTC (Yap1 mRNA [9]; 31.3 nM): 60 % UTC; Yap1 mRNA, % UTC (Yap1 mRNA [9]; 125.0 nM): 18 % UTC; Yap1 mRNA, % UTC (Yap1 mRNA [9]; 500.0 nM): 7 % UTC; Yap1 mRNA, % UTC (Yap1 mRNA [9]; 2000.00 nM): 5 % UTC; pIC50 (Yap1 mRNA [9]): > 7.70; Kidney weight [2]: 0.49 g; Liver weight [2]: 2.30 g; Spleen weight [2]: 0.20 g; body weight [2]: 34 g
7 | 1198312 (kG*k[5mC]*kA*d[5mC]*dT*dT*dT*dT*dA*d[5mC]*dA*dT*kT*eA*kG*eG) [compound 1198312] | 60 | 4.26 g | 19 g | 2.19 g | 365 | 76 | 34 | 10 | 5 | 7.00 | 132 U/L | 108 U/L | 25 mg/dL | 0.14 mg/dL | 
8 | 1198615 (kT*kT*kA*dA*dA*dG*dT*dG*dT*dA*dT*dG*kT*k[5mC]*kA*eG) [compound 1198615] | 8 | 3.01 g | 16 g | 2.35 g | 369 | 52 | 23 | 5 | 2 | > 7.52 | 38 U/L | 71 U/L | 21 mg/dL | 0.13 mg/dL | Yap1 mRNA in tumors, % control (Yap1 mRNA [10]): 62 % control
9 | 1198874 (kA*kA*dG*dT*dG*dT*dA*dT*dG*dT*d[5mC]*kA*eG*kA*eA*kG) [compound 1198874] | 9 | 3.67 g | 20 g | 2.61 g | 372 | 36 | 8 | 1 | 0 | > 7.52 | 73 U/L | 102 U/L | 22 mg/dL | 0.16 mg/dL | 
10 | 1074756 (kG*k[5mC]*kA*d[5mC]*dT*dT*dT*dT*dA*d[5mC]*dA*dT*dT*kA*kG*kG) [compound 1074756] | 167 | 4.71* g | 21* g | 1.99* g | 349 | 42 | 20 | 6 | 3 | > 7.52 | 114* U/L | 79* U/L | 0.57* mg/dL | 0.10* mg/dL | Yap1 mRNA, % UTC (Yap1 mRNA [9]; 31.3 nM): 22 % UTC; Yap1 mRNA, % UTC (Yap1 mRNA [9]; 125.0 nM): 7 % UTC; Yap1 mRNA, % UTC (Yap1 mRNA [9]; 500.0 nM): 4 % UTC; Yap1 mRNA, % UTC (Yap1 mRNA [9]; 2000.00 nM): 4 % UTC; pIC50 (Yap1 mRNA [9]): > 7.70
